Legend:
Type in all cases: in vivo
Boophilus microplus = Boophilus microplus injection test; conditions: application rate 20 μg/animal; injection into abdomen; assessed after 7 days
Experimental: Boophilus microplus—Injection Test
(§1) Solvent: dimethyl sulphoxide
To produce an appropriate active ingredient formulation, 10 mg of active ingredient are mixed with 0.5 ml of solvent and the concentrate is diluted with solvent to the desired concentration.
1 μl of the active ingredient solution is injected into the abdomen of 5 engorged adult female cattle ticks (Boophilus microplus). The animals are transferred into dishes and kept in a climate-controlled room.
Efficacy is assessed after 7 days by laying of fertile eggs. Eggs which are not visibly fertile are stored in a climate-controlled cabinet until the larvae hatch after about 42 days. An efficacy of 100% means that none of the ticks has laid any fertile eggs; 0% means that all the eggs are fertile.

Lucilia cuprina = Lucilia cuprina test; conditions: application rate 100 ppm; L1 larvae; after 2 days
Experimental: as §1
To produce an appropriate active ingredient formulation, 10 mg of active ingredient are mixed with 0.5 ml of dimethyl sulphoxide, and the concentrate is diluted with water to the desired concentration.
About 20 L1 larvae of the Australian sheep blowfly (Lucilia cuprina) are transferred into a test vessel containing minced horsemeat and the active ingredient preparation of the desired concentration.
After 2 days, the kill in % is determined. 100% means that all the larvae have been killed and 0% means that none of the larvae have been killed.

Ctenocephalides felis [1] = test: Ctenocephalides felis oral test; conditions: application rate 100 ppm in citrated cattle blood; after 2 days
Experimental: Ctenocephalides felis—Oral Test
as §1
For the purpose of producing an appropriate active ingredient formulation, 10 mg of active ingredient are mixed with 0.5 ml of dimethyl sulphoxide. Dilution with citrated cattle blood gives the desired concentration.
About 20 unfed adult cat fleas (Ctenocephalides felis) are placed into a chamber which is closed at the top and bottom with gauze. A metal cylinder whose bottom end is closed with parafilm is placed onto the chamber. The cylinder contains the blood/active ingredient preparation, which can be imbibed by the fleas through the parafilm membrane.
After 2 days, the kill in % is determined. 100% means that all of the fleas have been killed; 0% means that none of the fleas have been killed.

Phaedon cochleariae = Phaedon cochleariae spray test; conditions: larvae, after 7 days
Experimental: Phaedon cochleariae—Spray Test
(§2) To produce an appropriate active ingredient formulation, 1 part by weight of active ingredient is dissolved using the specified parts by weight of solvent and made up with water containing an emulsifier concentration of 1000 ppm until the desired concentration is attained. To produce further test concentrations, the preparation is diluted with emulsifier-containing water.
Discs of Chinese cabbage leaves (Brassica pekinensis) are sprayed with an active ingredient formulation of the desired concentration and, after drying, populated with larvae of the mustard beetle (Phaedon cochleariae).
After 7 days, efficacy in % is determined. 100% means that all the beetle larvae have been killed; 0% means that no beetle larvae have been killed.

Spodoptera frugiperda = Spodoptera frugiperda spray test; conditions: caterpillars, after 7 days
Experimental: Spodoptera frugiperda—Spray Test
as §2
Leaf discs of maize (Zea mays) are sprayed with an active ingredient formulation of the desired concentration and, after drying, populated with caterpillars of the armyworm (Spodoptera frugiperda).
After 7 days, efficacy in % is determined. 100% means that all the caterpillars have been killed; 0% means that no caterpillars have been killed.

Tetranychus urticae = Tetranychus urticae spray test, OP-resistant; conditions: application rate 100 g/ha; after 6 days
Experimental: Tetranychus urticae—Spray Test, OP-Resistant
as §2
Discs of bean leaves (Phaseolus vulgaris) infested by all stages of the greenhouse red spider mite (Tetranychus urticae) are sprayed with an active ingredient formulation of the desired concentration.
After 6 days, efficacy in % is determined. 100% means that all the spider mites have been killed; 0% means that none of the spider mites have been killed.

Rhipicephalus sanguineus = Rhipicephalus sanguineus in vitro contact test with adult brown dog ticks; conditions: after 48 h, ticks dead or moribund
Experimental: Rhipicephalus sanguineus—In Vitro Contact Tests with Adult Brown Dog Ticks
(§3) For the coating of the test tubes, 9 mg of active ingredient are first dissolved in 1 ml of acetone p.a. and then diluted to the desired concentration with acetone p.a. 250 μl of the solution are distributed homogeneously on the inner walls and base of a 25 ml test tube by turning and rocking on an orbital shaker (rocking rotation at 30 rpm for 2 h). With 900 ppm active ingredient solution and internal surface 44.7 cm^2, given homogeneous distribution, an area-based dose of 5 μg/cm^2 is achieved.
After the solvent has evaporated off, the tubes are populated with 5-10 adult dog ticks (Rhipicephalus sanguineus), sealed with a perforated plastic lid and incubated in a horizontal position in the dark at room temperature and ambient humidity. After 48 h, efficacy is determined. To this end, the ticks are knocked to the floor of the tube and incubated on a hotplate at 45-50° C. for not more than 5 min. Ticks which remain motionless on the floor or move in such an uncoordinated manner that they are unable to deliberately avoid the heat by climbing upwards are considered to be dead or moribund.
An efficacy of 100% means that all the ticks were dead or moribund. 0% efficacy means that none of the ticks had been harmed.

Ctenocephalides felis [2] = test: Ctenocephalides felis in vitro contact test with adult cat fleas; conditions: application rate 5 μg/cm^2 (500 g/ha); after 48 h; fleas dead or moribund
Experimental: Ctenocephalides felis—In Vitro Contact Tests with Adult Cat Fleas
as §3
After the solvent has evaporated off, the tubes are populated with 5-10 adult cat fleas (Ctenocephalides felis), sealed with a perforated plastic lid and incubated in a horizontal position at room temperature and ambient humidity. After 48 h, efficacy is determined. To this end, the test tubes are stood upright and the fleas are knocked to the base of the tube. Fleas which remain motionless at the base or move in an uncoordinated manner are considered to be dead or moribund.
100% efficacy means that all the fleas were dead or moribund. 0% efficacy means that no fleas were harmed.

[3] = application rate 5 μg/cm^2 (500 g/ha)

SMILES	efficacy (laying of fertile eggs) (Boophilus microplus)	efficacy (kill in %) (Lucilia cuprina)	efficacy (kill in %) (Ctenocephalides felis [1])	efficacy (Phaedon cochleariae; application rate 100 g/ha)	efficacy (Spodoptera frugiperda; application rate 100 g/ha)	efficacy (Tetranychus urticae)	efficacy (Rhipicephalus sanguineus; [3])	efficacy (Ctenocephalides felis [2])	efficacy (Rhipicephalus sanguineus; application rate 1 μg/cm^2 (100 g/ha))	efficacy (Phaedon cochleariae; application rate 500 g/ha)	efficacy (Spodoptera frugiperda; application rate 500 g/ha)
Cn1nc(C(F)(F)C(F)(F)F)c(C(F)(F)F)c1-n1cc(-c2ccc(Cl)c(NC(=O)c3ccccc3)c2)cn1 [Example 1-023]	100%	100%	100%	100%	100%	100%	100%	100%			
Cn1nc(C(F)(F)C(F)(F)F)c(C(F)(F)F)c1-n1cc(-c2ccc(F)c(NC(=O)C(C)(C)C)c2)cn1 [Example 1-078]	100%	100%	80%		100%	100%	100%				
CC(C)C(C)(C)C(=O)Nc1cc(-c2cnn(-c3c(C(F)(F)F)c(C(F)(F)C(F)(F)F)nn3C)c2)ccc1F [Example 1-065]	100%	80%	90%			100%					
COc1ccc(C(=O)Nc2cc(-c3cnn(-c4c(C(F)(F)F)c(C(F)(F)C(F)(F)F)nn4C)c3)ccc2F)cc1F [Example 1-095]	100%	100%	100%	100%	100%	100%	100%	100%			
Cn1nc(C(F)(F)C(F)(F)F)c(C(F)(F)F)c1-n1cc(-c2ccc(F)c(NC(=O)C(C)(C)CF)c2)cn1 [Example 1-046]	100%	100%				100%					
Cc1ccc(C(=O)Nc2cc(-c3cnn(-c4c(C(F)(F)F)c(C(F)(F)C(F)(F)F)nn4C)c3)ccc2F)cc1F [Example 1-092]	100%	100%	100%	100%	100%	100%	100%				
Cc1cc(C(=O)Nc2cc(-c3cnn(-c4c(C(F)(F)F)c(C(F)(F)C(F)(F)F)nn4C)c3)ccc2F)cc(Cl)n1 [Example 1-043]	100%	100%	100%	100%	100%	100%			80%		
Cn1nc(C(F)(F)C(F)(F)F)c(C(F)(F)F)c1-n1cc(-c2cccc(NC(=O)C3(C#N)CC3)c2)cn1 [Example 1-029]	100%	100%	100%			100%	100%			83%	100%
Cn1nc(C(F)(F)C(F)(F)F)c(C(F)(F)F)c1-n1cc(-c2cccc(NC(=O)c3sccc3Cl)c2)cn1 [Example 1-018]	100%					90%				100%	100%
Cn1nc(C(F)(F)C(F)(F)F)c(C(F)(F)F)c1-n1cc(-c2cccc(NC(=O)c3cc(Cl)nc(Cl)c3)c2)cn1 [Example 1-011]	100%	100%	100%	100%		90%	80%				
Cn1nc(C(F)(F)C(F)(F)F)c(C(F)(F)F)c1-n1cc(-c2ccc(F)c(NC(=O)c3ccc4c(c3)OCO4)c2)cn1 [Example 1-093]	100%	100%	100%	100%	100%	100%	100%				
Cc1occc1C(=O)Nc1cc(-c2cnn(-c3c(C(F)(F)F)c(C(F)(F)C(F)(F)F)nn3C)c2)ccc1F [Example 1-067]	100%	100%	100%	100%	100%	100%					
CN(C)c1ccc(C(=O)Nc2cc(-c3cnn(-c4c(C(F)(F)F)c(C(F)(F)C(F)(F)F)nn4C)c3)ccc2F)cc1 [Example 1-054]	100%	100%		100%	100%	100%	100%				
CCC(C)C(=O)Nc1cc(-c2cnn(-c3c(C(F)(F)F)c(C(F)(F)C(F)(F)F)nn3C)c2)ccc1F (racemic) [Example 1-052]	100%	100%	90%		100%	100%					
Cn1nc(C(F)(F)C(F)(F)F)c(C(F)(F)F)c1-n1cc(-c2cccc(NC(=O)c3c(F)cccc3F)c2)cn1 [Example 1-015]	100%	100%	100%	100%	100%	100%	80%				
Cn1nc(C(F)(F)C(F)(F)F)c(C(F)(F)F)c1-n1cc(-c2ccc(F)c(NC(=O)c3ccc(F)cc3)c2F)cn1 [Example 1-039]				100%	100%	100%		80%			
Cc1ccc2c(Cl)c(C(=O)Nc3cc(-c4cnn(-c5c(C(F)(F)F)c(C(F)(F)C(F)(F)F)nn5C)c4)ccc3F)sc2c1 [Example 1-083]	80%							80%			
C[C@@H](F)C(=O)Nc1cc(-c2cnn(-c3c(C(F)(F)F)c(C(F)(F)C(F)(F)F)nn3C)c2)ccc1F [Example 1-066]	100%	80%	100%				100%	100%			
Cn1nc(C(F)(F)C(F)(F)F)c(C(F)(F)F)c1-n1cc(-c2ccc(F)c(NC(=O)Cc3cccc(F)c3)c2)cn1 [Example 1-121]	100%	100%	100%	100%	100%	100%	100%				

From US10273226B2, “Pyrazolyl-heteroarylamides as pesticides” (Bayer Animal Health GmbH, priority 2014, dated 2019)
